In patent US20250221936A1, “ENGINEERED HEMICHANNELS, ENGINEERED VESICLES, AND USES THEREOF” (VIRGINIA TECH INTELLECTUAL PROPERTIES, INC., priority 2018, published 2025):
Like-named read-outs stand apart in the source and are kept apart here.

Experiments:
silicone implant = assay: Silicone implants coated with JM2; format: in vivo, rat; conditions: 180 micomolar in 25% pluronic gel
Procedure: 25% pluronic F127 gel (Sigma-Aldrich, St. Louis, MO 63103), which is liquid at 4° C., but gels at 37° C., was used as a delivery vehicle for JM2 peptide. Pluronic gel has mild surfactant properties that aid in peptide dispersion. The JM2 peptide was reconstituted in IX PBS containing the 25% pluronic gel to a final concentration of 180 micomolar.
Animals were anesthetized with 2.75% isoflurane balance oxygen gas. After achievement of general anesthesia, the surgical site consisting of the animal's upper back was prepped by clipping fur down to skin and applying betadine scrub solution in triplicate. Sterile towels were draped to define the surgical field. PWAS Silicone sensors (5 mm diameter) were autoclave sterilized and warmed to 37° C. prior to implantation. For the treatment group, implants were dipped twice in JM2 pluronic solution prior to implantation. For the vehicle control group, the implants were dipped in saline only. This coating procedure produced an even coating of the implant. A muscle pocket was created under the latissimus dorsi muscle and implants were inserted. 50 μL of the corresponding solution was also injected into the muscle pocket prior to closure. The muscles were reapproximated with 4-0 Prolene (Ethicon Inc, Somerville, NJ 08876) and the skin closed with 4-0 Prolene and skin staples. […]

GST-Cx43 CT = target: T1, GST-Cx43 CT (Rattus norvegicus, UniProt P08050); assay: EDC cross-linking of kinase reaction mixtures, Cx43 CT; format: binding; conditions: 5, 10 and 25 μM
T1 construct: pGEX-6-P2 Cx43 CT amino acids 255-382; made in house; host or cells: E. coli BL21
Procedure: To characterize the interaction between the Cx43 CT substrate and peptides, the in vitro kinase assay was performed as above with modification and the constituents then subjected to a cross-linking reaction. The assay buffer used was 20 mM 3-(N-morpholino) propanesulfonic acid (MOPS), pH 7.2. All other reagents present in the kinase reaction were maintained as described above. The reaction was allowed to proceed at 37° C. for 15 minutes. Afterwards, the carbodiimide crosslinker 1-Ethyl-3-(3-dimethylaminopropyl) carbodiimide HCl (EDC) (Thermo, 22980) was added to each solution for a final concentration of 20 mM. The solution was allowed to cross-link for one hour at room temperature. The reaction was stopped by the addition of 4×LDS loading buffer, boiled for 5 minutes and subsequently separated by PAGE. The resulting gel was stained in Coomassie brilliant blue (Sigma, B0770) for two hours and destained in a solution of 4% methanol 7% acetic acid overnight. Gel bands were subsequently excised for mass spectrometric analysis. For the direct interaction between protein and peptides, PBS, pH 7.5 was used as the coupling buffer. The protein (50 μg/ml) and peptide (25 μM) were allowed to react at room temperature for one hour before EDAC was added to the reaction mixture. The reaction was Western blotted for Cx43, GST or NeutroAvidin. […]

implants = assay: Inflammatory infiltrate at implants, myeloperoxidase stain; format: in vivo; conditions: 24 hour time point
Text: In attempting to quantify the neutrophil infiltrate using a myeloperoxidase stain, the inventors observed that some of the cells stained darker than others. Upon further investigation, these cells were not neutrophils as but rather were macrophages.

cerebral lesion = conditions: 100 μM in 2% collagen within HFM; cited from earlier work
[1] = test system: human MGMT-deficient and TMZ-resistant GBM cells; conditions: cited from earlier work
cryo-injured LV wall = conditions: cited from earlier work; for LV function: 8 week time course; for Cx43 in myocytes bordering the injury: mouse, in vivo; for arrhythmias: pacing and S1-S2 protocols
GST-Cx43 CT QQ/KK = target: T2, GST-Cx43 CT QQ/KK (Rattus norvegicus, UniProt P08050, K345Q/K346Q); assay: EDC cross-linking, Cx43 CT QQ/KK mutant substrate; format: binding; conditions: 5, 10 and 25 μM
T2 construct: pGEX-6-P2 Cx43 CT amino acids 255-382; made in house; host or cells: E. coli BL21
Procedure: To characterize the interaction between the Cx43 CT substrate and peptides, the in vitro kinase assay was performed as above with modification and the constituents then subjected to a cross-linking reaction. The assay buffer used was 20 mM 3-(N-morpholino) propanesulfonic acid (MOPS), pH 7.2. All other reagents present in the kinase reaction were maintained as described above. The reaction was allowed to proceed at 37° C. for 15 minutes. Afterwards, the carbodiimide crosslinker 1-Ethyl-3-(3-dimethylaminopropyl) carbodiimide HCl (EDC) (Thermo, 22980) was added to each solution for a final concentration of 20 mM. The solution was allowed to cross-link for one hour at room temperature. The reaction was stopped by the addition of 4×LDS loading buffer, boiled for 5 minutes and subsequently separated by PAGE. The resulting gel was stained in Coomassie brilliant blue (Sigma, B0770) for two hours and destained in a solution of 4% methanol 7% acetic acid overnight. Gel bands were subsequently excised for mass spectrometric analysis. For the direct interaction between protein and peptides, PBS, pH 7.5 was used as the coupling buffer. The protein (50 μg/ml) and peptide (25 μM) were allowed to react at room temperature for one hour before EDAC was added to the reaction mixture. The reaction was Western blotted for Cx43, GST or NeutroAvidin.

[2] = aqueous solutions; cited from earlier work
heart allograft = conditions: 100 μM in UW solution, cited from earlier work
[3] = test system: ARPE19 cell (immortalized human RPE cells) monolayers; conditions: pre-treatment, cited from earlier work
[4] = test system: Human umbilical vein endothelial cells (HUVECs); conditions: cited from earlier work

T1 sequence (P08050 255-382): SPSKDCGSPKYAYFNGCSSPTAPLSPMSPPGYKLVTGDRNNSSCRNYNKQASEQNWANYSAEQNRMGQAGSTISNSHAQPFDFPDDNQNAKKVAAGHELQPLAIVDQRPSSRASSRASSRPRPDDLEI
T2 sequence (P08050 255-382 K345Q/K346Q): as the sequence (P08050 255-382) above, with K91Q, K92Q counted along it

VFFKGVKDRVKGRSD [JM2]
healing, capsule formation, scarring and fibrosis (silicone implant): improved healing and decreased capsule formation, scarring and fibrosis | inflammation and skeletal muscle necrosis (silicone implant): decreased inflammation and reduced skeletal muscle necrosis

RQPKIWFPNRRKPWKKRPRPDDLEI [alpha CT1]
EDC cross-linking to Cx43 CT (GST-Cx43 CT): covalently linked by EDC to Cx43 CT in a concentration-dependent manner | type of inflammatory infiltrate (implants): the primary inflammatory infiltrate was macrophages | density of GFAP-positive astrocytes (cerebral lesion): much lower density of GFAP-positive astrocytes | sensitivity to TMZ [1]: sensitized human MGMT-deficient and TMZ-resistant GBM cells to TMZ treatment | LV function (cryo-injured LV wall): sustained improvements in ventricular contractile performance over an 8-week study period | LV function (cryo-injured LV wall; listed as ACTI): significant improvement in LV diastolic and systolic function | Cx43 in myocytes bordering the injury (cryo-injured LV wall): reduced Cx43 GJ remodeling in injury border zone tissues | Cx43 in myocytes bordering the injury (cryo-injured LV wall; listed as ACTI): higher and more uniform, intercalated-disk-localized and pS368 phosphorylated Cx43 | arrhythmias (cryo-injured LV wall): decreased propensity of the injured hearts to develop inducible arrhythmias | arrhythmias (cryo-injured LV wall; listed as ACTI): dramatically reduced (p<0.05) frequency and severity of arrhythmias | EDC cross-linking to Cx43 CT QQ/KK mutant substrate (GST-Cx43 CT QQ/KK): no evidence of cross-linking | period of slow release of detectable levels of peptide [2]: at least 7 days | Evan's Blue sequestration into the transplanted heart (heart allograft; 6 h at 4° C., 30 mins post reperfusion): significantly reduces Evan's Blue sequestration into the transplanted heart | graft injury, serum cardiac troponin I, neutrophils (heart allograft; 6 hrs at 4° C.): significantly reduced cardiac injury, reduced serum cardiac troponin I and significantly reduced neutrophils | VEGF-induced deterioration of TER [3]: prevent VEGF-induced deterioration of TER | VEGF-induced deterioration of TER ([3]; listed as ACTI): blocked by pre-treating the cells with the ACTI peptide | protection from oxidative stress ([4]; H2O2): significantly protects endothelial cells from H2O2 | cellular injury ([4]; UW solution containing 100 μM): significantly reduced cellular injury as compared to untreated controls | IL-8 secretion and MHC II expression ([4]; UW solution supplemented with peptide): significant reduction in IL-8 secretion and MHC Class II expression | TEER and IL-8 secretion post reperfusion ([4]; UW+ACT1 solution): improved TEER and reduced IL-8 secretion
